Experimental data: article PMC10033409, “Autoregulation of GPCR signalling through the third intracellular loop” (Nature, 2023)
Values joined by “and” are separate entries in the source; they are usually repeats but may differ in a detail not shown here. Equal entries are not always repeated.

Key:
β2AR = test: Radiolabelled antagonist-binding assay (saturation); design: species or system human; Bmax / 125I-Cyanopindolol saturation binding signal: unit not given here; conditions: for Bmax / fmol 125I-Cyanopindolol/mg sample: replicates 1-3 and Average; for fmol 125I-Cyanopindolol/mg sample, Fit: fitted curve;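 on all read-outs here: membranes expressing β2AR constructs, equilibrated with radioligand on ice, bound ligand retained on GF/C filters, Bmax normalized to membrane protein from a DC assay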
Untransfected = test: Radiolabelled antagonist-binding assay (saturation), untransfected control sample; conditions: fitted curve
Excerpt: Supplement 41586_2023_5789_MOESM3_ESM.xlsx, sheet "Extended Data Figure 3J"

[1] = Sensor + Gs-peptide, 125I-Cyanopindolol 0.000239059 nM
[2] = Sensor + Gs-peptide, 125I-Cyanopindolol 0.0167722 nM
[3] = Sensor + Gs-peptide, 125I-Cyanopindolol 0.0344858 nM
[4] = Sensor + Gs-peptide, 125I-Cyanopindolol 0.073983 nM
[5] = Sensor + Gs-peptide, 125I-Cyanopindolol 0.202201 nM
[6] = Sensor + Gs-peptide, 125I-Cyanopindolol 0.415365 nM
[7] = Sensor + Gs-peptide, 125I-Cyanopindolol 0.83063 nM
[8] = Sensor + Gs-peptide, 125I-Cyanopindolol 1.64238 nM

**Q.** How did the Bmax (β2AR; Sensor + Gs-pep) turn out when [^125I](±)-cyanopindolol was run?
**A.** 1992.85 and 2334.87 and 1180.14

**Q.** And the “fmol 125I-Cyanopindolol/mg sample, Fit” value (β2AR; [1])?
**A.** 0.00E+00 fmol/mg sample

**Q.** And the “fmol 125I-Cyanopindolol/mg sample” value (β2AR; [1])?
**A.** -1.828 fmol/mg sample and 0.6291 fmol/mg sample and 0.5155 fmol/mg sample

**Q.** What about the “fmol 125I-Cyanopindolol/mg sample, Fit” value (β2AR; [2]) of the same substance?
**A.** 3.85E+02 fmol/mg sample

**Q.** What about the “fmol 125I-Cyanopindolol/mg sample” value (β2AR; [2]) of the same substance?
**A.** 331.932 fmol/mg sample and 483.578 fmol/mg sample and 237.189 fmol/mg sample

**Q.** What about the “fmol 125I-Cyanopindolol/mg sample, Fit” value (β2AR; [3]) of the same substance?
**A.** 6.37E+02 fmol/mg sample

**Q.** What about the “fmol 125I-Cyanopindolol/mg sample” value (β2AR; [3]) of the same substance?
**A.** 633.08 fmol/mg sample and 885.671 fmol/mg sample and 427.455 fmol/mg sample

**Q.** What about the “fmol 125I-Cyanopindolol/mg sample, Fit” value (β2AR; [4]) of the same substance?
**A.** 9.68E+02 fmol/mg sample

**Q.** And the “fmol 125I-Cyanopindolol/mg sample” value (β2AR; [4])?
**A.** 973.823 fmol/mg sample and 1370.71 fmol/mg sample and 652.022 fmol/mg sample

**Q.** And the “fmol 125I-Cyanopindolol/mg sample, Fit” value (β2AR; [5])?
**A.** 1.38E+03 fmol/mg sample

**Q.** And the “fmol 125I-Cyanopindolol/mg sample” value (β2AR; [5])?
**A.** 1415.68 fmol/mg sample and 1842.87 fmol/mg sample and 880.16 fmol/mg sample

**Q.** And the “fmol 125I-Cyanopindolol/mg sample, Fit” value (β2AR; [6])?
**A.** 1.58E+03 fmol/mg sample

**Q.** And the “fmol 125I-Cyanopindolol/mg sample” value (β2AR; [6])?
**A.** 1527.87 fmol/mg sample and 2049.46 fmol/mg sample and 1008.05 fmol/mg sample

**Q.** And the “fmol 125I-Cyanopindolol/mg sample, Fit” value (β2AR; [7])?
**A.** 1.71E+03 fmol/mg sample

**Q.** What about the “fmol 125I-Cyanopindolol/mg sample” value (β2AR; [7]) of the same substance?
**A.** 1817.18 fmol/mg sample and 2238.94 fmol/mg sample and 1107.54 fmol/mg sample

**Q.** What about the “fmol 125I-Cyanopindolol/mg sample, Fit” value (β2AR; [8]) of the same substance?
**A.** 1.78E+03 fmol/mg sample

**Q.** And the “fmol 125I-Cyanopindolol/mg sample” value (β2AR; [8])?
**A.** 1925.74 fmol/mg sample and 2301.14 fmol/mg sample and 1169.54 fmol/mg sample

**Q.** What about the “fmol 125I-Cyanopindolol/mg sample” value (β2AR; Sensor + Gs-peptide, 125I-Cyanopindolol 1.64238 nM, mean) of the same substance?
**A.** 1798.81 fmol/mg sample

**Q.** What about the “fmol 125I-Cyanopindolol/mg sample, Fit” value (β2AR; Sensor, 125I-Cyanopindolol 0.0198458 nM (Average)) of the same substance?
**A.** 3.34E+02 fmol/mg sample

**Q.** And the “fmol 125I-Cyanopindolol/mg sample, Fit” value (β2AR; Sensor, 125I-Cyanopindolol 0.0420593 nM (Average))?
**A.** 5.96E+02 fmol/mg sample

**Q.** What about the “fmol 125I-Cyanopindolol/mg sample, Fit” value (β2AR; Sensor, 125I-Cyanopindolol 0.234223 nM (Average)) of the same substance?
**A.** 1.38E+03 fmol/mg sample

**Q.** And the “fmol 125I-Cyanopindolol/mg sample, Fit” value (β2AR; Sensor, 125I-Cyanopindolol 0.468204 nM (Average))?
**A.** 1.60E+03 fmol/mg sample

**Q.** What about the “fmol 125I-Cyanopindolol/mg sample, Fit” value (β2AR; Sensor, 125I-Cyanopindolol 0.871756 nM (Average)) of the same substance?
**A.** 1.73E+03 fmol/mg sample

**Q.** And the “fmol 125I-Cyanopindolol/mg sample, Fit” value (β2AR; Sensor, 125I-Cyanopindolol 1.70257 nM (Average))?
**A.** 1.81E+03 fmol/mg sample

**Q.** And the Bmax (β2AR; Sensor)?
**A.** 1914.14 and 2557.54 and 1116.04

**Q.** And the “125I-Cyanopindolol saturation binding signal” value (β2AR; ∆ICL3 + 30 µM Q, 0.0283 nM, Average)?
**A.** 236.51

**Q.** What about the “125I-Cyanopindolol saturation binding signal” value (β2AR; ∆ICL3 + 30 µM Q, 0.0283 nM, Fit) of the same substance?
**A.** 285.20

**Q.** And the “125I-Cyanopindolol saturation binding signal” value (β2AR; ∆ICL3 + 30 µM Q, 0.0283 nM, experiments 1-3)?
**A.** 222.98 and 255.55 and 231.00

**Q.** And the “125I-Cyanopindolol saturation binding signal” value (β2AR; ∆ICL3 + 30 µM Q, 0.0474 nM, Average)?
**A.** 366.56

**Q.** And the “125I-Cyanopindolol saturation binding signal” value (β2AR; ∆ICL3 + 30 µM Q, 0.0474 nM, Fit)?
**A.** 463.24

**Q.** And the “125I-Cyanopindolol saturation binding signal” value (β2AR; ∆ICL3 + 30 µM Q, 0.0474 nM, experiments 1-3)?
**A.** 296.41 and 421.89 and 381.36

**Q.** What about the “125I-Cyanopindolol saturation binding signal” value (β2AR; ∆ICL3 + 30 µM Q, 0.10 nM, Average) of the same substance?
**A.** 910.97

**Q.** What about the “125I-Cyanopindolol saturation binding signal” value (β2AR; ∆ICL3 + 30 µM Q, 0.10 nM, Fit) of the same substance?
**A.** 816.24

**Q.** What about the “125I-Cyanopindolol saturation binding signal” value (β2AR; ∆ICL3 + 30 µM Q, 0.10 nM, experiments 1-3) of the same substance?
**A.** 840.60 and 993.89 and 898.42

**Q.** And the “125I-Cyanopindolol saturation binding signal” value (β2AR; ∆ICL3 + 30 µM Q, 1.85 nM, Average)?
**A.** 1906.34

**Q.** What about the “125I-Cyanopindolol saturation binding signal” value (β2AR; ∆ICL3 + 30 µM Q, 1.85 nM, Fit) of the same substance?
**A.** 1809.97

**Q.** What about the “125I-Cyanopindolol saturation binding signal” value (β2AR; ∆ICL3 + 30 µM Q, 1.85 nM, experiments 1-3) of the same substance?
**A.** 1586.99 and 2170.25 and 1961.77

**Q.** And the “125I-Cyanopindolol saturation binding signal” value (β2AR; ∆ICL3, 0.0283 nM, Average)?
**A.** 126.54

**Q.** What about the “125I-Cyanopindolol saturation binding signal” value (β2AR; ∆ICL3, 0.0283 nM, Fit) of the same substance?
**A.** 399.52

**Q.** What about the “125I-Cyanopindolol saturation binding signal” value (β2AR; ∆ICL3, 0.0283 nM, experiments 1-3) of the same substance?
**A.** 94.88 and 85.74

**Q.** What about the “125I-Cyanopindolol saturation binding signal” value (β2AR; ∆ICL3, 0.0474 nM, Average) of the same substance?
**A.** 687.11

**Q.** And the “125I-Cyanopindolol saturation binding signal” value (β2AR; ∆ICL3, 0.0474 nM, Fit)?
**A.** 612.62

**Q.** And the “125I-Cyanopindolol saturation binding signal” value (β2AR; ∆ICL3, 0.10 nM, Average)?
**A.** 1201.35

**Q.** And the “125I-Cyanopindolol saturation binding signal” value (β2AR; ∆ICL3, 0.10 nM, Fit)?
**A.** 1024.98

**Q.** What about the “125I-Cyanopindolol saturation binding signal” value (β2AR; ∆ICL3, 1.85 nM, Average) of the same substance?
**A.** 2504.14

**Q.** And the “125I-Cyanopindolol saturation binding signal” value (β2AR; ∆ICL3, 1.85 nM, Fit)?
**A.** 2413.51

**Q.** And the “125I-Cyanopindolol saturation binding signal” value (β2AR; ∆ICL3, 1.85 nM, experiments 1-3)?
**A.** 2561.55 and 2855.56 and 2095.33

**Q.** And the “fmol 125I-Cyanopindolol/mg sample, Fit” value (Untransfected; 125I-Cyanopindolol 0.0198458 nM (Average))?
**A.** 7.834e-5 fmol/mg sample

**Q.** And the “fmol 125I-Cyanopindolol/mg sample, Fit” value (Untransfected; 125I-Cyanopindolol 0.0420593 nM (Average))?
**A.** 0.0001875 fmol/mg sample

**Q.** And the “fmol 125I-Cyanopindolol/mg sample, Fit” value (Untransfected; 125I-Cyanopindolol 0.234223 nM (Average))?
**A.** 0.05859 fmol/mg sample

**Q.** And the “fmol 125I-Cyanopindolol/mg sample, Fit” value (Untransfected; 125I-Cyanopindolol 0.468204 nM (Average))?
**A.** 1.044 fmol/mg sample

**Q.** And the “fmol 125I-Cyanopindolol/mg sample, Fit” value (Untransfected; 125I-Cyanopindolol 0.871756 nM (Average))?
**A.** 13.7262 fmol/mg sample

**Q.** And the “fmol 125I-Cyanopindolol/mg sample, Fit” value (Untransfected; 125I-Cyanopindolol 1.70257 nM (Average))?
**A.** 172.555 fmol/mg sample
